The text below walks through data of paper PMC11576293, “New series of 4,6-diaryl pyrimidines: facile synthesis and antiproliferative activity as dual EGFR/VEGFR-2 inhibitors” (Frontiers in Chemistry, 2024).

Several values for one entry are separate records, joined by “and”; a condition that tells them apart may be missing. Identical values can stand only once.

A short description of series [1]: Experimental lipophilicity by RP-TLC. In kind it is physicochemical. The settings on record: for Experimental lipophilicity Co: concentration of MeOH at RM = 0, in % (unit assumed). The source says:
The RP-TLC method was used to measure the lipophilicity parameters (RMo, b, and Co) described in the experimental section. The mobile phase consisted of different proportions of water and organic modifier (MeOH). RF and RM values were obtained for each ratio of organic modifier/water system (Supplementary Table S3), and a linear regression analysis was achieved to obtain the lipophilicity chromatographic descriptors (RMo, b, and Co, see Table 6). Relative lipophilicity (RMo) describes the partitioning of the solute between pure water and nonpolar stationary phase. In contrast, the second lipophilicity parameter (Co) represents the concentration of organic modifier in the mobile phase in which the solute is equally distributed between two phases (i.e., RM = 0, and Rf = 0.5). Also, Co is known to be widely used in QSAR analysis as it embraces both the specific hydrophobic surface area of the solute and RMo. […] Finally, the slope of the regression line (b) was used as a descriptor of the specific hydrophobic surface area of the compound. In a series of structurally related compounds, b is linearly correlated with RMo, resulting in a linear relationship that is the basic feature of the chromatographic determination of lipophilicity. […] Moreover, substituents affected tested compounds’ measured lipophilicity parameter (RMo) values. Higher RMo values were found with lipophilic derivatives containing the benzyl group (14, 22, and 28), while lower RMo values were found with derivatives containing alkyl or allyl groups (19, 26, and 27). An interesting contradiction was found with experimental lipophilicity value of 28 and its congener 14, where compound 28 was found more lipophilic than its congener 14 even though it contains two methoxy groups and according to ChemDraw® and MolSoft® programs, derivative 14 should be more lipophilic while the MOE® program expects values matching our findings. […] Also, S-allyl derivatives were nearly equipotent to S-alkyl congeners as antiproliferative agents but quite different in terms of lipophilicity.

Series [2] concerns HT-29. The experiment in a line: Antiproliferative assay (MTT). In kind it is cell-based. Conditions: Homo sapiens, HT-29 (colon), read-out: Antiproliferative activity IC50 ± SEM, HT-29. From the text: (§1) The MTT test was employed for this investigation ([Hisham et al., 2022]; [El-Sherief et al., 2019]; [Ramadan et al., 2020]). Table 2 presents the four cancer cell lines’ median inhibitory concentration (IC50) and GI50 (average IC50) values.
(§2) The MTT test was employed for this investigation ([Hisham et al., 2022]; [El-Sherief et al., 2019]; [Ramadan et al., 2020]). The IC50 values were derived from dose-response tests. The reported data are derived from at least two independent studies, each comprising three replicates per concentration. See Supplementary Material A1 for more details.
(§3) (in 0.1% DMSO) were added (in 200 μL medium to yield a final concentration of 0.1% v/v) to the wells of plates. A single compound was designated with four wells followed by incubation of plates for 96h at 37°C. After incubation, medium was removed completely from the plates followed by addition of MTT (0.4 mg/mL in medium) to each well and subsequent incubation of plates for 3h. MTT (along with the medium) was removed and DMSO (150μL) was added to each well of the culture plates, followed by vertexing and subsequent measurement of absorbance (at 540 nm) using microplate reader. The data are shown as percentage inhibition of proliferation in comparison with controls containing 0.1% DMSO.
(§4) 4.2.1.2. Assay for antiproliferative effect […]
(§5) (10%) and 1 µg/mL each of aprotinin, leupeptin and pepstatin for 120 min. The purification was performed either at 4 °C or on ice. To record autophosphorylation level, EGFR kinase assay was carried out on the basis of DELFIA/Time-Resolved Fluorometry. The compounds were first
(§6) (1 picture or pasted object on this page, not shown here)

Series [3] relates to A-549. The experiment in a line: Antiproliferative assay (MTT). Format: cell-based. Conditions: Homo sapiens, A549, A-549 (lung), read-out: Antiproliferative activity IC50 ± SEM, A-549.
Description: as §1, §2, §3, §4, §5, §6

For series [4], the system named is Panc-1. The experiment in a line: Antiproliferative assay (MTT). In kind it is cell-based. The settings on record: Homo sapiens, Panc-1 (pancreatic), read-out: Antiproliferative activity IC50 ± SEM, Panc-1.
Description: as §1, §2, §3, §4, §5, §6

In series [5] the test system is MCF-7. The experiment in a line: Antiproliferative assay (MTT). In kind it is cell-based. Conditions: Homo sapiens, MCF7, MCF-7 (breast), read-out: Antiproliferative activity IC50 ± SEM, MCF-7.
Description: as §1, §2, §3, §4, §5, §6

In series [6] the target is T1, EGFR (Homo sapiens, UniProt P00533).
T1 construct: amino acids 645–1186; His6 (N); made in house; host or cells: Sf-9 insect cells (baculovirus; pBlueBacHis2B / pFASTBacHTc)
The experiment in a line: EGFR-TK inhibitory assay. In kind it is biochemical. Conditions: read-out: EGFR inhibition IC50 ± SEM.

Series [7] addresses VEGFR-2 (Homo sapiens, UniProt P35968). The experiment in a line: VEGFR-2 inhibitory assay.

Sequence of VEGFR-2 (P35968 20-1356): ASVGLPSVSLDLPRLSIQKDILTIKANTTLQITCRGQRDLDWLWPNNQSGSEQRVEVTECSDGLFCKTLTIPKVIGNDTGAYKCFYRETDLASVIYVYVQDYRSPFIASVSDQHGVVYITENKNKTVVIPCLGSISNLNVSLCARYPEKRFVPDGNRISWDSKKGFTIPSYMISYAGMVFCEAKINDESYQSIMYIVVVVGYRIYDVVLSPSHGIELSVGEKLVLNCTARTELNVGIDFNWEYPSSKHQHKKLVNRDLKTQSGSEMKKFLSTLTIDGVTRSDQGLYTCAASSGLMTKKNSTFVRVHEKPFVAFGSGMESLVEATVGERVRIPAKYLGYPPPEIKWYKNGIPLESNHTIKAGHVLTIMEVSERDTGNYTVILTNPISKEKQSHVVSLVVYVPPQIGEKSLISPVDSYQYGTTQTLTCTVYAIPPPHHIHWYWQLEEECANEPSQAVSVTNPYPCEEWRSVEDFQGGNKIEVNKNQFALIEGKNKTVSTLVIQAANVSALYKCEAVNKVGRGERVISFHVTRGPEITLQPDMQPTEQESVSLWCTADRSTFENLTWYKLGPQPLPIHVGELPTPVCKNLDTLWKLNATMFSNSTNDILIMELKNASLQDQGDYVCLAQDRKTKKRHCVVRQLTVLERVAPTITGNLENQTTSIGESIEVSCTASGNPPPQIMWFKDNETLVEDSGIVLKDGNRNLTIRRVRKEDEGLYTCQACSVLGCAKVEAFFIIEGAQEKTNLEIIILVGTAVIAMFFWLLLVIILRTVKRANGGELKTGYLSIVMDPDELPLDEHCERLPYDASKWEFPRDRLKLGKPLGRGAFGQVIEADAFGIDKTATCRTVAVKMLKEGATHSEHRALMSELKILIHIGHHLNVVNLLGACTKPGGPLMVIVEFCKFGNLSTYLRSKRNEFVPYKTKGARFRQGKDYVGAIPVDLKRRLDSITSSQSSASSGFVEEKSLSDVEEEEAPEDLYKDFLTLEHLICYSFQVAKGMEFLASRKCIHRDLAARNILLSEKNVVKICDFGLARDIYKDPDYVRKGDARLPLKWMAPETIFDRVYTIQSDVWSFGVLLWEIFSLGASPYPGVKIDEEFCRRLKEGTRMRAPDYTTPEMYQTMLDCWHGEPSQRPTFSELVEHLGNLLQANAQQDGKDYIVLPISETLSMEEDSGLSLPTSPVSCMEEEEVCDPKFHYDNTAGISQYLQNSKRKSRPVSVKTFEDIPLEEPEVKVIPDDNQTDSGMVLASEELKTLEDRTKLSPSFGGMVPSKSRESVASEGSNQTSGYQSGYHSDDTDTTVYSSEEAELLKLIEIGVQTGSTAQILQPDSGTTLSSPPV
T1 sequence (P00533 669-1210): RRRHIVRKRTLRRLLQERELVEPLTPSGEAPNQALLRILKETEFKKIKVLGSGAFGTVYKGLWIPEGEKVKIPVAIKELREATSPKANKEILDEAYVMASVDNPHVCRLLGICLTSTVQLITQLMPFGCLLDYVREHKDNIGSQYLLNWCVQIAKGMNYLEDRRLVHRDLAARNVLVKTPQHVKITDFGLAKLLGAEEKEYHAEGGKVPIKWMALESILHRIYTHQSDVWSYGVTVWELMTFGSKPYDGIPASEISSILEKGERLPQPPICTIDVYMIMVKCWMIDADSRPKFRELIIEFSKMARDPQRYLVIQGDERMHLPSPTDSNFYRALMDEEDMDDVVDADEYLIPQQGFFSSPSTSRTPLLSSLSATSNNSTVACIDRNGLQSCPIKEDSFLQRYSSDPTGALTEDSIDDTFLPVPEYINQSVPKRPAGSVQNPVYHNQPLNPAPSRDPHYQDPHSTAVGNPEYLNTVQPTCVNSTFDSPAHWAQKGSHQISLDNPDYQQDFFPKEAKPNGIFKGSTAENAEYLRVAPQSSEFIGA

As to `COc1ccc(-c2cc(-c3cccc(OC)c3)nc(SC(C)C)n2)cc1` [Compound 19, 2-(Isopropylthio)-6-(3-methoxyphenyl)-4-(4-methoxyphenyl)pyrimidine], the “Experimental lipophilicity RMo” value in series [1] (MeOH/water mobile phase) is recorded as 7.02. The “Experimental lipophilicity Co” value in series [1] is 87.6579 and 91.32. For the same compound, the IC50 in series [2] came out at 30 ± 2 nM; in series [3], 29 ± 2 nM; in series [4] it was 30 ± 2 nM; in series [5], 32 ± 3 nM; in series [6] it was 83 ± 6 nM; in series [7], 2.7 ± 0.02 nM.

Consider `COc1ccc(-c2cc(-c3ccc(Cl)cc3)nc(SCc3ccccc3)n2)cc1` [Compound 14, 2-(Benzylthio)-4-(4-chlorophenyl)-6-(4-methoxyphenyl)pyrimidine], for which the “Experimental lipophilicity RMo” value in series [1] (MeOH/water mobile phase) is 7.024 ± 0.05913. Besides, in series [1] (MeOH/water mobile phase), the “Experimental lipophilicity b (slope)” value was -0.074 ± 0.00066. Further, the “Experimental lipophilicity Co” value in series [1] stood at 91.3417. Moreover, the IC50 in series [2] is 28 ± 2 nM; in series [3] it was 28 ± 2 nM; in series [4], 29 ± 2 nM; in series [5], 30 ± 2 nM; in series [6], 90 ± 7 nM; in series [7], 2.2 ± 0.02 nM.

By IC50 is commonly meant the midpoint of a concentration-inhibition curve.
